Values after ≈ are worked out from the molar mass of the structure shown. Read-outs that look alike come from different tables or passages of the source.
Legend:
[1] = tested on: Burkholderia cepacia complex; assay: Broth microdilution MIC (Example 10); details: initial MIC testing
P. aeruginosa [2] = assay: Broth microdilution MIC (Example 10)
[3] = tested on: Burkholderia cepacia complex; assay: Checkerboard FIC assay, BisEDT with CF agents (Example 10); assay type: cell-based, Burkholderia spp.; details: for MIC: agent alone, as observed during FIC testing
[4] = tested on: Enterococcus spp. (E. faecalis, E. faecium); assay: Broth microdilution MIC (Example 11); assay type: cell-based; details: Enterococcus faecium, VRE, E. faecium MMX 485; VRE, vanA, LevR, CipR, EryR; read-out: MIC
[5] = tested on: beta-hemolytic streptococci (S. pyogenes, S. agalactiae); assay: Broth microdilution MIC (Example 11); assay type: cell-based, Streptococcus pyogenes, Streptococcus agalactiae; details: read-out: MIC
P. aeruginosa [6] = assay: Checkerboard FIC assay, BisEDT with CF agents (Example 10); assay type: cell-based, Pseudomonas aeruginosa; details: for FICB: Colistin FIC in combination with BisEDT; for FICB / MICB: per checkerboard row; for MICB: Colistin MIC in combination with BisEDT; for Drug B MIC: Colistin alone (checkerboard with BisEDT)
[7] = S. agalactiae MMX 3741, ERY^R CC^R
[8] = S. agalactiae MMX 3743, ERY^R CC^R
[9] = S. agalactiae MMX 4077, ERY^R CC^R
[10] = S. agalactiae MMX 4079, ERY^R CC^R Pen^R MEM^R
[11] = S. agalactiae MMX 4086, ERY^R CC^R

`C[C@H]1[C@H](NC(=O)/C(=N\OC(C)(C)C(=O)O)c2csc(N)n2)C(=O)N1S(=O)(=O)O` [AZT] showed an MIC ([1]; B. cenocepacia isolate 0813 (CPI-I)) of 8 µg/mL (≈ 18.4 µM), an MIC ([1]; B. cenocepacia isolate 1631) of 32 µg/mL (≈ 73.5 µM) and an MIC ([1]; B. cenocepacia isolate 1783) of 32 µg/mL (≈ 73.5 µM). It also gave an MIC ([1]; B. cenocepacia isolate 8555) of 256 µg/mL (≈ 588 µM), an MIC ([1]; B. cepacia isolate 0546) of 16 µg/mL (≈ 36.7 µM) and an MIC ([1]; B. cepacia isolate 0547) of 16 µg/mL (≈ 36.7 µM). For the same compound, the MIC ([1]; B. cepacia isolate 1793) was 128 µg/mL (≈ 294 µM), the MIC ([1]; B. cepacia isolate 1794) was 32 µg/mL (≈ 73.5 µM) and the MIC ([1]; B. cepacia isolate 9040) was 32 µg/mL (≈ 73.5 µM). For the same compound, the MIC ([1]; B. multivorans isolate 1580 (CIP-R)) was 64 µg/mL (≈ 147 µM), the MIC ([1]; B. multivorans isolate 1791) was 4 µg/mL (≈ 9.19 µM) and the MIC ([1]; B. multivorans isolate 1795 (MEM-I, CIP-R)) was 4 µg/mL (≈ 9.19 µM). For the same compound, the MIC ([1]; B. multivorans isolate 5665 (CIP-I)) was 4 µg/mL (≈ 9.19 µM), the MIC ([1]; B. multivorans isolate 8952 (CIP-I)) was 8 µg/mL (≈ 18.4 µM) and the MIC (P. aeruginosa [2]; P. aeruginosa isolate 103 (ATCC 25922), QC strain, initial MIC testing) was 8 µg/mL (≈ 18.4 µM). The MIC (P. aeruginosa [2]; P. aeruginosa isolate 103 (ATCC 25922), during FIC testing, each agent tested alone for QC, one replicate) was 8 µg/mL, the MIC (P. aeruginosa [2]; P. aeruginosa isolate 1497 (TOB-R, AMK-R, CIP-I, AZT-R, COL-R), initial MIC testing) was 32 µg/mL (≈ 73.5 µM) and the MIC (P. aeruginosa [2]; P. aeruginosa isolate 1530 (TOB-R, AMK-R, CIP-R), initial MIC testing) was 4 µg/mL (≈ 9.19 µM). The MIC (P. aeruginosa [2]; P. aeruginosa isolate 1553 (TOB-R, AMK-R, CIP-R), initial MIC testing) was 8 µg/mL (≈ 18.4 µM), the MIC (P. aeruginosa [2]; P. aeruginosa isolate 6322 (MEM-R, TOB-R, AMK-R, CIP-R, AZT-R), initial MIC testing) was 64 µg/mL (≈ 147 µM) and the MIC (P. aeruginosa [2]; P. aeruginosa isolate 6977 (MEM-I, TOB-R, CIP-R, AZT-I), initial MIC testing) was 16 µg/mL (≈ 36.7 µM). For the same compound, the MIC (P. aeruginosa [2]; P. aeruginosa isolate 7745 (MEM-R, CIP-R, AZT-R), initial MIC testing) was 32 µg/mL (≈ 73.5 µM), the MIC (P. aeruginosa [2]; P. aeruginosa isolate 7754 (MEM-R, TOB-R, CIP-R, AZT-I), initial MIC testing) was 16 µg/mL (≈ 36.7 µM) and the MIC (P. aeruginosa [2]; P. aeruginosa isolate 7762 (MEM-I, CIP-I), initial MIC testing) was 8 µg/mL (≈ 18.4 µM). It also gave an MIC (P. aeruginosa [2]; P. aeruginosa isolate 7871 (MEM-R, AZT-I), initial MIC testing) of 16 µg/mL (≈ 36.7 µM), an MIC (P. aeruginosa [2]; P. aeruginosa isolate 7874, initial MIC testing) of 4 µg/mL (≈ 9.19 µM) and an MIC (P. aeruginosa [2]; P. aeruginosa isolate 7886 (MEM-R, CIP-R, AZT-R), initial MIC testing) of 64 µg/mL (≈ 147 µM). The MIC (P. aeruginosa [2]; P. aeruginosa isolate 8797 (MEM-R, TOB-R, AMK-R, CIP-R, AZT-R, COL-R), initial MIC testing) was over 256 µg/mL, the MIC (P. aeruginosa [2]; P. aeruginosa isolate 8798 (MEM-R, TOB-R, AMK-R, CIP-R, AZT-R, COL-R), initial MIC testing) was 256 µg/mL (≈ 588 µM) and the MIC (P. aeruginosa [2]; P. aeruginosa isolate 9108 (CIP-R, AZT-I), initial MIC testing) was 16 µg/mL (≈ 36.7 µM). The MIC ([3]; B. cenocepacia isolate 0548) was 64 µg/mL, the MIC ([3]; B. cenocepacia isolate 0813) was 32 µg/mL and the MIC ([3]; B. multivorans isolate 1795) was 16 µg/mL.

With `C[C@H]1COc2c(N3CCN(C)CC3)c(F)cc3c(=O)c(C(=O)O)cn1c23` [Levofloxacin, reference compound] the MIC [4] was over 64 µg/mL, the MIC [5, 7] was 0.5 µg/mL (≈ 1.38 µM) and the MIC [5, 8] was 1 µg/mL (≈ 2.77 µM). It also gave an MIC [5, 9] of 0.5 µg/mL (≈ 1.38 µM), an MIC [5, 10] of 1 µg/mL (≈ 2.77 µM) and an MIC [5, 11] of 0.5 µg/mL (≈ 1.38 µM).

`CCC[C@@H]1C[C@@H](C(=O)N[C@@H]([C@H]2O[C@H](SC)[C@H](O)[C@@H](O)[C@H]2O)[C@H](C)Cl)N(C)C1` [clindamycin, reference compound] was tested, and the MIC [4] was over 32 µg/mL, the MIC [5, 7] was over 8 µg/mL and the MIC [5, 8] was over 8 µg/mL. It also gave an MIC [5, 9] of over 8 µg/mL, an MIC [5, 10] of over 8 µg/mL and an MIC [5, 11] of over 8 µg/mL.

For Colistin, the FICB (P. aeruginosa [6]; P. aeruginosa 6322) was 1, the MICB (P. aeruginosa [6]; P. aeruginosa 6322) was 0.5 µg/mL and the “Drug B MIC” value (P. aeruginosa [6]; P. aeruginosa 6322) was 0.5 µg/mL. For the same compound, the FICB (P. aeruginosa [6]; P. aeruginosa 6977) was 1, the MICB (P. aeruginosa [6]; P. aeruginosa 6977) was 1 µg/mL and the “Drug B MIC” value (P. aeruginosa [6]; P. aeruginosa 6977) was 1 µg/mL. For the same compound, the FICB (P. aeruginosa [6]; P. aeruginosa 7745) was 1, the MICB (P. aeruginosa [6]; P. aeruginosa 7745) was 0.5 µg/mL and the “Drug B MIC” value (P. aeruginosa [6]; P. aeruginosa 7745) was 0.5 µg/mL. For the same compound, the “Drug B MIC” value (P. aeruginosa [6]; P. aeruginosa 8798) was over 256 µg/mL, the “Drug B MIC” value (P. aeruginosa [6]; P. aeruginosa 9108) was 0.5 µg/mL and the FICB ([3]; B. multivorans 1795, FIC of Colistin in combination with BisEDT) was 1.

From patent US12186283B2, “Bismuth-thiol compositions and methods of use” (Microbion Corporation, priority 2018, dated 2025)
